Assays:
[1] = system: transformed-control line containing PAT and Cry1F; assay: Foliar-applied auxinic herbicides on control (PAT/Cry1F, wildtype) Arabidopsis, % injury 14 DAT; format: in vivo, Arabidopsis thaliana; settings: PatCry1f - Control
In short: (§1)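 Homozygous T4 AAD1 (v3) Arabidopsis (line AAD1.01.315.076) and a PAT/Cry1F transformed control were grown in pots and track-sprayed foliarly at 187 L/ha with herbicides formulated in 200 mM Hepes pH 7.5. Injury was rated 14 days after treatment, with 3-4 replicates averaged over two experiments.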

[2] = system: AAD1 (v3) cotton plant; assay: 2,4-D resistance of AAD1 (v3) cotton plant; format: in vivo; settings: 560 g ae/ha
Experimental: (§2) Two AAD1 (v3) cotton lines have produced plants according to the above protocol that have been sent to the greenhouse. […] The plants were sprayed at 560 g ae/ha 2,4-DMA formulated in 200 mM Hepes buffer (pH 7.5). The plants were evaluated at 3, 7, and 14 days after treatment. Plants were assigned injury ratings with respect to stunting, chlorosis, and necrosis. Plants assigned an injury rating of 90% or above are considered dead. […] By 7 DAT epinasy continued on the wild-type and the new growth shoots began turning brown. It received a rating of 50% at this time. At 14 DAT the AAD1 (v3) plant was still uninjured, whereas the wild-type was severely stunted, and the new growth areas were brown and shriveled. Thus, the wild-type received a rating of 90% at 14 DAT.

[3] = system: wild-type cotton plants; assay: 2,4-D injury of wild-type cotton plant; format: in vivo; settings: 560 g ae/ha
Experimental: as §2

[4] = system: AAD1 (v3) T1 tobacco (events 721(2)-013.010 and 721(3)-008.005); assay: Segregating AAD1 T1 tobacco response to phenoxy auxin herbicides; format: in vivo, Nicotiana tabacum
Excerpt: (§3) Two AAD1 (v3) tobacco lines (event 721(2)-013.010 and 721(3)-008.005) were chosen from the T0 generation. The T1 seed was stratified, and sown into selection trays much like that of Arabidopsis (Example 6.4), followed by selective removal of untransformed nulls in this segregating population with 280 g ai/ha glufosinate (PAT selection). Survivors were transferred to individual 3-inch pots in the greenhouse. […] Improved consistency of response is anticipated in T1 plants not having come directly from tissue culture. These plants were compared against wildtype KY 160 tobacco. All plants were sprayed with the use of a track sprayer set at 187 L/ha. […] All applications were formulated in 200 mM Hepes buffer (pH 7.5). Each treatment was replicated 4 times. Plants were evaluated at 3 and 14 days after treatment. Plants were assigned injury rating with respect to stunting, chlorosis, and necrosis. The T1 generation is segregating, so some variable response is expected due to difference in zygosity. (Table 28).

[5] = system: F1 corn containing AAD1 (v3), PAT, and glyphosate resistance genes; assay: Greenhouse injury of F1 corn stacked with AAD1 (v3), PAT and glyphosate resistance (2,4-D DMA, glyphosate, glufosinate and combinations); format: in vivo; settings: RR/PAT/AAD1
Excerpt: Homozygous T2 AAD1 (v3)/PAT corn plants were crossed with glyphosate resistant corn plants producing F1 seed containing AAD1 (v3), PAT, and glyphosate resistance genes as described in the previous example.
(§4) F1 seeds were planted individually into 3-inch pots prepared with Metro-Mix® 360 growing medium (Sun Gro Horticulture). […] For the remainder of the study the plants were subirrigated with deionized water.
(§5) The plants were sprayed with rates of 2,4-D DMA, glyphosate, glufosinate, and various combinations of the three. All applications were formulated in 200 mM Hepes buffer (pH 7.5). In spray applications where glufosinate was present the treatment was formulated with the addition of 2% w/v ammonium sulfate.
(§6) At 3 and 14 days after treatment (DAT) plants were evaluated. Plants were assigned injury rating with respect to stunting, chlorosis, and necrosis. Plants assigned an injury rating of 90% or above are considered dead.

[6] = system: wildtype KY 160 tobacco; assay: Wildtype tobacco response to phenoxy auxin herbicides; format: in vivo, Nicotiana tabacum; settings: KY160-Wildtype
Experimental: Each treatment was replicated 1-3 times. Injury ratings were recorded 3 and 14 DAT. […] In several events, some initial auxinic herbicide-related epinasty occurred at doses of 800 g ae/ha or less. […] All events suffered some level temporary auxinic damage 3 DAT when treated with 3200 g ae/ha. Some leaf burning also occurred at this high rate due to the acidity of the spray solution. Future trials at high 2,4-D rates were buffered. […] Some events were inconsistent in response among replicates and were deemed “variable” (Table 27).
as §3

[7] = system: T4 Arabidopsis homozygous for AAD1 (v3) (line AAD1.01.315.076); assay: Foliar-applied auxinic herbicides on homozygous T4 AAD1 (v3) Arabidopsis, % injury 14 DAT; format: in vivo, Arabidopsis thaliana; settings: AAD1.01.315.076.T4 homozygous AAD1 plants
In short: as §1

[8] = system: Hi II X 5XH751; assay: Greenhouse injury of non-transformed Hi II X 5XH751 corn (2,4-D DMA, glyphosate, glufosinate and combinations); format: in vivo
Experimental: as §4, §5, §6

[9] = target: AAD2 (v1) (Bradyrhizobium diazoefficiens, UniProt Q89UC4); assay: Colorimetric phenol assay of AAD2 (v1) E. coli extract / partially purified enzyme; format: biochemical, Bradyrhizobium japonicum; settings: E. coli extract
[10] = target: T1, AAD1 (v1) (Sphingobium herbicidovorans, UniProt Q8KSC8); assay: Colorimetric phenol detection assay of AAD1 (v1) activity (purified enzyme or E. coli extract); format: biochemical
T1 construct: made in house; host or cells: E. coli BL-21 Star (DE3), plasmid pDAB3203

[11] = system: immature Hi-II embryos; assay: Dose response using immature maize embryos (% embryogenic callus formation); format: cell-based; settings: up to 30 nM
Experimental: Dose response studies were initiated using immature embryos treated with Agrobacterium strain LBA4404 lacking a plasmid as described previously. Once treated, embryos were allowed to co-cultivate for 5 days at 25° C. and were then transferred to selection media containing various levels of R-haloxyfop or R-cyhalofop. Embryos were also transferred to media containing 1 mg/L bialaphos and 100 nM imazethapyr as negative controls. Embryos were scored for % embryogenic callus formation after 2 weeks, and then again after 4 weeks.

[12] = system: pDAB3230-transformed Arabidopsis; assay: Glyphosate tolerance of pDAB3230 (AAD1 (v3)+EPSPS) T1 Arabidopsis; format: in vivo, Arabidopsis thaliana; settings: 7 DAT; EPSPS stacked with AAD1 (v3)
[13] = system: non-transformed (NT) ‘Shamrock’ Kentucky bluegrass; assay: Haloxyfop-R-methyl on non-transformed Kentucky bluegrass controls; format: in vivo; settings: seed grown plants
Experimental: The selected T0 plants were sprayed with haloxyfop-R-methyl (Gallant Super®, DOW AGROSCIENCES, INC.) at rates ranging from 140 to 560 g ae/ha. […] This rate would also control susceptible monocot weed species. Measured amounts were placed individually in 25 mL glass vials and dissolved in a 12 mL volume of 1.0% (v/v) Agri-Dex® Crop Oil Concentrate (COC).
Spray solutions were applied to the plant material with an overhead Mandel™ track sprayer equipped with a 8002E nozzles calibrated to deliver 187 L/ha over an application area of 0.503 square meters (m^2) at a spray height of 18 inches (46 cm) above average plant canopy height. Control plants were sprayed in the same manner with the COC blank.
The treated plants and control plants were placed in a greenhouse and watered by sub-irrigation to prevent wash-off of the test compounds. At various times after application, the condition of the test plants as compared with that of the untreated plants was determined visually and scored on a scale of 0 to 100 percent, where 0 corresponds to no injury or growth inhibition, and 100 corresponds to complete kill. Regenerated, non-transformed (NT) ‘Shamrock’ Kentucky bluegrass plants and/or seed-derived clonally propagated plants served as haloxyfop sensitive controls.

## CNC.O=C(O)COc1ccc(Cl)cc1Cl [2,4-DMA]
[1]; 12.5 g ae/ha foliar
  Ave % Injury 14DAT: 67%
[1]; 25 g ae/ha foliar
  Ave % Injury 14DAT: 78%
[1]; 50 g ae/ha foliar
  Ave % Injury 14DAT: 93%
[1]; 100 g ae/ha foliar
  Ave % Injury 14DAT: 100%
[1]; 200 g ae/ha foliar
  Ave % Injury 14DAT: 100%
[1]; 400 g ae/ha foliar
  Ave % Injury 14DAT: 100%
[1]; 800 g ae/ha foliar
  Ave % Injury 14DAT: 100%
[1]; 1600 g ae/ha foliar
  Ave % Injury 14DAT: 100%
[2]; 3 DAT
  injury, AAD1 (v3) cotton: 0%
[2]; 14 DAT
  injury, AAD1 (v3) cotton: uninjured
[3]; 3 DAT
  injury rating, wild-type cotton: 15%
[3]; 7 DAT
  injury rating, wild-type cotton: 50%
[3]; 14 DAT
  injury rating, wild-type cotton: 90%
[4]; 560 g ae/ha, 721(2)013.010 (medium tolerance in T0 generation)
  Average % Injury of Replicates 14 DAT: 5%
[4]; 560 g ae/ha, 721(3)008.005 (high tolerance in T0 generation)
  Average % Injury of Replicates 14 DAT: 0%
[4]; 1120 g ae/ha, 721(2)013.010 (medium tolerance in T0 generation)
  Average % Injury of Replicates 14 DAT: 5%
[4]; 1120 g ae/ha, 721(3)008.005 (high tolerance in T0 generation)
  Average % Injury of Replicates 14 DAT: 2%
[4]; 2240 g ae/ha, 721(2)013.010 (medium tolerance in T0 generation)
  Average % Injury of Replicates 14 DAT: 5%
[4]; 2240 g ae/ha, 721(3)008.005 (high tolerance in T0 generation)
  Average % Injury of Replicates 14 DAT: 0%
[4]; 4480 g ae/ha, 721(2)013.010 (medium tolerance in T0 generation)
  Average % Injury of Replicates 14 DAT: 5%
[4]; 4480 g ae/ha, 721(3)008.005 (high tolerance in T0 generation)
  Average % Injury of Replicates 14 DAT: 5%
[5]; 560 g ae/ha (1X)
  % Injury at 14 DAT Ave: 0%
[5]; 1120 g ae/ha (2X)
  % Injury at 14 DAT Ave: 0%
[5]; 2240 g ae/ha (4X)
  % Injury at 14 DAT Ave: 0%
[6]; 560 g ae/ha
  Average % Injury of Replicates 14 DAT: 75%
[6]; 1120 g ae/ha
  Average % Injury of Replicates 14 DAT: 80%
[6]; 2240 g ae/ha
  Average % Injury of Replicates 14 DAT: 90%
[6]; 4480 g ae/ha
  Average % Injury of Replicates 14 DAT: 95%
[7]; 12.5 g ae/ha foliar
  Ave % Injury 14DAT: 0%
[7]; 25 g ae/ha foliar
  Ave % Injury 14DAT: 0%
[7]; 50 g ae/ha foliar
  Ave % Injury 14DAT: 0%
[7]; 100 g ae/ha foliar
  Ave % Injury 14DAT: 0%
[7]; 200 g ae/ha foliar
  Ave % Injury 14DAT: 0%
[7]; 400 g ae/ha foliar
  Ave % Injury 14DAT: 0%
[7]; 800 g ae/ha foliar
  Ave % Injury 14DAT: 0%
[7]; 1600 g ae/ha foliar
  Ave % Injury 14DAT: 0%
[8]; 560 g ae/ha (1X)
  % Injury at 14 DAT Ave: 10%
[8]; 1120 g ae/ha (2X)
  % Injury at 14 DAT Ave: 14%
[8]; 2240 g ae/ha (4X)
  % Injury at 14 DAT Ave: 29%

## C[C@@H](Oc1ccc(Oc2ncc(C(F)(F)F)cc2Cl)cc1)C(=O)O [R-haloxyfop]
[9]
  AAD2 (v1) activity on substrate: unable to act
[10]; 0.5 mM substrate, 4 μl extract, 15 min
  activity of AAD1 (v1) E. coli extract on substrate: equivalent to that on (R,S)-haloxyfop
[10]; purified AAD1 (v1)
  kcat: 0.187 s⁻¹
[10]; purified AAD1 (v1), 25 mM MOPS pH 6.8, 25° C., read-out: Km ± SE
  Km: 120 ± 54 µM
[10]; purified AAD1 (v1), Michaelis-Menten fit
  Vmax ± SE: 0.34 ± 0.04 μmol min^−1 mg^−1 AAD1
[11]
  reduction of embryogenic callus formation: insufficient reduction of callus formation

## O=C(O)CNCP(=O)(O)O [glyphosate]
[12]
  level of glyphosate tolerance (I50) vs. wildtype and transformed control lines: > 14 fold
[5]; 840 g ae/ha (1X field rate)
  % Injury at 14 DAT Ave: 0%
[5]; 1680 g ae/ha (2X)
  % Injury at 14 DAT Ave: 0%
[5]; 3360 g ae/ha (4X)
  % Injury at 14 DAT Ave: 0%
[8]; 840 g ae/ha (1X field rate)
  % Injury at 14 DAT Ave: 98%
[8]; 1680 g ae/ha (2X)
  % Injury at 14 DAT Ave: 100%
[8]; 3360 g ae/ha (4X)
  % Injury at 14 DAT Ave: 100%

## COC(=O)[C@@H](C)Oc1ccc(Oc2ncc(C(F)(F)F)cc2Cl)cc1 [haloxyfop-R-methyl]
[13]
  GR90 (herbicide rate which produces 90% injury and/or growth inhibition): approximately 70 g ae/ha

Source: US10450549B2, “Aryloxyphenoxypropionate tolerance in turfrgass species and use of AAD1 as a selectable marker” (Dow AgroSciences, LLC, priority 2004, dated 2019)
